# Measured values from patent publication US11999697B2, “Methods and compositions for inhibition of dihydroorotate dehydrogenase” (OHIO STATE INNOVATION FOUNDATION, priority 2018, dated 2024).
# Where two headings read alike, the source gives them in different places.
# How the values were obtained:
# [1] = Pharmacokinetic study, single dose by IV, IP, PO; type: in vivo, wild type B6 mice; settings: 10 mg/kg single dose; for AUC(0-t) / Tmax / bioavailability / half-life: B6, mouse, plasma; for Cmax: B6, mouse plasma
# Description: LC-MS/MS Assay Materials: Acetonitrile and methanol were LC-MS grade (Fisher Scientific (Fair Lawn, N.J., USA). Other chemicals were as follows: formic Acid (98%, v/v in water; Fisher Scientific, Fair Lawn, N.J., USA); ammonium acetate (Sigma Aldrich Inc.); water: DDH2O obtained from a Millipore water system; and brequinar was obtained from Sigma. (>99% purity). Solvent A: 0.1% formic acid in water. Solvent B: 0.1% Formic Acid in methanol and acetonitrile. Internal Standard (“IS”) precipitation solution was 150 ng/ml internal standards in acetonitrile: water (3:1, v/v).
# Sample preparation: To 10 μL plasma sample was added 100 μL of working IS solution and 20 μL MeOH. Samples were then vortexed for 30 seconds, followed by centrifugation (Eppendorf 5415 R centrifuge) at 10,000 rpm for 8 minutes at 4° C. Supernatant of each sample was transferred into an autosampler vial and sealed with rubber/Teflon crimp cap. Sample volume that was injected onto HPLC was 5 μL. The calibrations samples were prepared at a test compound concentration of 1000, 500, 250, 100, 50, 10, 5 ng/mL in mouse plasma. The quality control samples were as follows: QC1=750 ng/mL, OC2=75 ng/mL, QC3=25 ng/mL, LLOQ=5 ng/mL.
# HPLC Parameters: Accucore Vanquish C18 column (100×2.1 mm, dp=1.5 μm) used in a Vanquish UHPLC system, using a XBridge® BEH C18, 5-μm guard column. Mobile phase: gradient as provided below in Table 8 below. Column temperature: 40° C.±5° C.; Autosampler temperature: 10° C.±5° C. Flow rate: 0.4 ml/min. run time: 5.0 min.
# The mass spectrometer used was a TSQ Quantiva (Thermo Fisher Scientific).
# Briefly, wild type B6 mice were injected with a single dose (10 mg/kg) of Cpd3 by three different injection routes: oral gavage (PO), intravenous (IV) and intraperitoneal (IP) (N=4 per route). The vehicle used was 15% ethanol, 30% polyethylene glycol (PEG), and this same vehicle was used for each delivery route. Cpd3 was prepared as a 2.5 mg/mL concentration and delivered at 10 mg/kg (volume delivered in microliters was 4 times the weight of the mouse in grams). Blood plasma was sampled at time zero (0) and […] additional time points (15, 30 and 60 minutes, and 2, 6 and 24 hours), and the level of Cpd3 determined in mouse plasma by LC-MS/MS assay as described above. The data were used to calculate Cmax, Clast, Tmax, T1/2, AUC, and bioavailability for Cpd3 as appropriate for the route of administration.
# [2] = tested on: normal T-cells (CD4, CD8); assay: CFSE proliferation assay; type: cell-based, human; settings: 0.3 and 1 μM, CD3/CD28 stimulation, 72 hours
# Protocol: CFSE proliferation assays: Peripheral blood mononuclear cells from healthy adults were negatively selected to enrich for CD3, CD4, or CD8 T-cells. Cells were then stained with carboxyfluorescein succinimidyl ester (CSFE) and stimulated with plate bound anti-CD3 and soluble anti-CD28 antibodies. Proliferation was determined by CFSE dilution in the presence of vehicle or Cpd3 (0.3 and 1 μM doses) at 72 hours.
# FIGS. 7A-7I show representative cell proliferation data for normal T-cells following treatment with vehicle or a representative disclosed compound, Cpd3 in the presence or absence of CD3/CD28 stimulation using a CSFE proliferation flow cytometry assay as described herein below. Briefly, T-cells were isolated from normal healthy donors, labeled with CSFE, and then either left unstimulated or co-stimulated with CD3/CD28 in the presence of vehicle or Cpd3 (0.3 and 1 μM doses) for 72 hours. Proliferation was determined by CSFE dilution in CD4 and CD8 T-cells. Data shown in FIGS. 7A-7H were obtained from one representative normal donor.
# [3] = tested on: primary human AML cells; assay: Cytospin slides and Wright-Giemsa staining for differentiation; type: cell-based; settings: 1 μM, 14 days
# Protocol: Cytospin slides and Wright-Giemsa staining for differentiation: Primary AML cells were solubilized from the methocult in the CFU assays. 150-300K cells were immobilized onto microscope slides and stained with Wright-Giemsa stain. Differentiated myeloid cells were recognized by the typical morphological changes associated with early neutrophil differentiation including a characteristic multi-lobed or kidney bean shaped nucleus.
# The primary AML cells following treatment with Cpd3 were analyzed by Wright-Giemsa stain. FIGS. 4A-4C show representative micrographs of primary human AML cells treated a representative disclosed compound, Cpd3, compared to a reference compound, brequinar, or vehicle treatment using methods as described herein below. Briefly, primary AML cells were treated with vehicle (DMSO), Cpd3 (1 μM) or brequinar (BQR, 1 μM) and plated in semi-solid methylcellulose-based media for 14 days. Cells were recovered from the methylcellulose and immobilized on glass slides and stained with a Wright-Giemsa stain (the more differentiated myeloid cells are indicated by the red arrows). The images are shown for vehicle treatment (FIG. 4A); Cpd3 treatment (FIG. 4B); and brequinar treatment (FIG. 4C). The primary human AML cells are from a representative patient sample. […]
# [4] = biological target: T1, DHODH (Homo sapiens, UniProt Q02127); assay: DHODH enzymatic assay (DCIP reduction); type: biochemical
# T1 construct: made in house
# Protocol: DHODH Enzymatic Assay: DHODH activity was determined at 25° C. following the reduction of 2,6-dichloroindophenol sodium salt (DCIP) at 600 nm (ε=18 800 M^−1 cm^−1) on a spectrophotometer. The reaction medium used contained 50 mM Tris-HCl, pH 8.0, 0.1% Triton X-100, 0.1 mM LDHO, 0.025 mM CoQ1, and 0.06 mM DCIP. The reaction was started by addition of the enzyme. The inhibitory potency of the compounds was evaluated by measuring the initial velocity of the reaction either in the absence or in the presence of the compounds at the indicated concentrations. The DHODH enzyme used was the recombinant human enzyme prepared as previously described (Helene Munier-Lehmann, et al., J. Med. Chem. 2015, 58:860-877).
# [5] = tested on: OCI-AML3; assay: MTS cell proliferation assay, OCI-AML3; type: cell-based; settings: Homo sapiens
# Protocol: Triplicate wells were set up for each condition.
# The assays were carried out in a blinded fashion.
# T1 sequence (Q02127 whole entry): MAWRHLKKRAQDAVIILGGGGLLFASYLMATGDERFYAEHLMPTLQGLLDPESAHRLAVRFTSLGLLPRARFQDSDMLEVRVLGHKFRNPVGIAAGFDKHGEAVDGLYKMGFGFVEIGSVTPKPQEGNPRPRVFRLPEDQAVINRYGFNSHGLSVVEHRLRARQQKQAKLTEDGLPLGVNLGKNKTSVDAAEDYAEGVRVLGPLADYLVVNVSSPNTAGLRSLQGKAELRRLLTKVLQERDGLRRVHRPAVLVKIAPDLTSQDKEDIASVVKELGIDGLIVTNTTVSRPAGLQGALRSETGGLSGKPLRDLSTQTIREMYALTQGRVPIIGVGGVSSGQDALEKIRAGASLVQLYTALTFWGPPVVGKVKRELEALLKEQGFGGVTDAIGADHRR
smiles,measurement,setting,value
"CCOc1ccc(-c2ccc(-c3cc(C(=O)O)c4cc(F)ccc4n3)cc2)cc1 [Cpd3, 2-(4′-ethoxy-[1,1′-biphenyl]-4-yl)-6-fluoroquinoline-4-carboxylic acid]",AUC(0-t),[1]; IP,120 ± 228 µg·h/mL
same,Tmax,[1]; IP,0.31 ± 0.13 h
same,bioavailability,[1]; IP,89%
same,half-life,[1]; IP,2.2 ± 0.11 h
same,AUC(0-t),[1]; IV,134 ± 217 µg·h/mL
same,half-life,[1]; IV,2.3 ± 0.19 h
same,AUC(0-t),[1]; PO,425 ± 163 µg·h/mL
same,Tmax,[1]; PO,0.5 h
same,bioavailability,[1]; PO,32%
same,half-life,[1]; PO,5.6 ± 1.95 h
same,Cmax,[1]; IP,40200 ± 9300 ng/mL
same,Cmax,[1]; IV,36400 ± 14300 ng/mL
same,Cmax,[1]; PO,12200 ± 4300 ng/mL
same,Clast,[1]; IP,16 ± 7 ng/mL
same,Clast,[1]; IV,22 ± 16 ng/mL
same,Clast,[1]; PO,310 ± 180 ng/mL
same,T-cell proliferation,[2],inhibits T-cell proliferation
same,differentiation by Wright-Giemsa stain,[3],induces differentiation in primary human AML cells
same,"DHODH inhibition, % inhibition",[4]; compound concentration not given,97%
same,IC50,"[4]; range in parentheses, read-out: DHODH inhibition, IC50",43 nM
same,IC50,"[5]; OCI-AML-3, 96 hour, Table 6, read-out: 96 hour IC50 (nM) in OCI-AML-3 cell line",321 nM
same,IC50,"[5]; OCI-AML-3, 96 hours, read-out: IC50 (μM) at 96 hours, OCI-AML3",610 nM
